Counter-ions that a name gives are not always drawn. Like-named read-outs stand apart in the source and are kept apart here.
Columns and labels:
DENV-2 S221 = details: ref Investigator’s Brochure (IB), cited from earlier work
[1] = design: method as in Investigator’s Brochure (IB); details: in vitro; ref Investigator’s Brochure (IB); cited from earlier work
[2] = Seven-day repeat dose non-GLP study in rats (UV4-COV-0045); format: in vivo, rat; details: for a 60 kg human
Protocol: The seven-day repeat dose study in rats was conducted at 10 mg/kg/dose TID (30 mg/kg/day), 25 mg/kg/dose TID (75 mg/kg/day), and 60 mg/kg/dose TID (180 mg/kg/day).
At 10 mg/kg/dose, mild to moderate clinical hematology and clinical chemistry changes and histopathological changes in the gastrointestinal tract (GI) similar to dogs and mice were observed; therefore this dose exceeded the no observed effect level (NOEL). At […]
60 mg/kg/dose there were similar findings to mice and dogs but a unique finding of possible […]
skin, paws and/or feet. These findings appeared within 120 minutes of treatment with the first or second daily dose 60 mg/kg/dose (TID) on Day 1 or Day 2. This response was transient and self-limiting, and was not observed after Day 2 in either the single or repeated doses. […]
The inverted AST/ALT ratio […]
and lymphocyte depletion were reversible. Thymus weight decrease in females was reversible but thymus weight decreases in males were not. However, because the apparent […]
microscopic thymus findings, thymus weight differences at the recovery necropsy were considered not toxicologically important. In mice at 25 mg/kg/dose (75 mg/kg/day) there were decreased thymus weights (males), follicular epithelium vacuolation in the thyroid, and lymphoid depletion of the thymus (males). […]
Daily exposure [calculated as 3 x AUC(0-8)] is estimated at 32,820 ng•h/mL. […]

[3] = in vitro; ref Investigator’s Brochure (IB); cited from earlier work
all ten CYPs = system: all ten CYPs; design: method as in Investigator’s Brochure (IB); details: all ten CYPs at the tested conditions; ref Investigator’s Brochure (IB); cited from earlier work
in vivo = assay: in vivo; design: species or system AG129 mice; details: Crl:CD1(ICR), dose-adjusted PK data from the 25 mg/kg/day dose of the mouse 14-day study, read-out: Cmax at which relevant pharmacological activity is expected
Protocol: UV-4B was evaluated in four in vitro genetic toxicology assays (two Ames bacterial reverse mutation, mouse lymphoma assay, and chromosomal aberration in cultured human lymphocytes), and in an in vivo (mouse bone marrow micronucleus). UV-4B was not found to be mutagenic or clastogenic in any of these assays
2.2 Rationale for Dose Selection
This is a single-ascending dose study in which UV-4B will be administered for the first time in humans. The study will evaluate the safety, tolerability, and PK of increasing oral doses of […]
The results from this study will form the basis for the selection of doses of UV-4B to be used in future studies in healthy subjects and in patients diagnosed with uncomplicated DENV infection.
In the studies summarized below, the dose stated refers to the free-base used in vitro or administered during in vivo experiments.
The proposed doses for Cohorts 1 through 8 will range from 3 mg to 1000 mg of UV-4B (dose stated refers to the free base; see Table 2). […]
UV-4B, administered orally TID (intragastric via oral gavage) for a total number of 7 days (first dose administered 1 hour prior to infection) was effective in promoting survival of AG129 mice challenged with DENV. Of the doses evaluated (2.5, 5, 10, 20, and 40 mg/kg TID), the minimal effective dose (survival of 90% to 100%) was determined to be 10 mg/kg TID (UV4-LIA-0002). […]

CYP2C8 = system: CYP2C8; design: method as in Investigator’s Brochure (IB); details: in vitro; ref Investigator’s Brochure (IB); cited from earlier work
[4] = human, mouse, rat, and dog liver microsomes and hepatocytes; ref Investigator’s Brochure (IB); cited from earlier work
[5] = oral, first dose 1 hour before infection, TID for 7 days

Compound | 50% effective dose (DENV-2 S221; [5]) [mg/kg TID] | Minimal effective dose (90% survival rate) (DENV-2 S221; [5]) [mg/kg TID] | 50% effective dose (DENV-2 S221; step-wise minimal effective dose and therapeutic window studies, start 24 or 48 hours after infection) [mg/kg TID] | Mutagenicity, mouse lymphoma assay [1] | HED of 60 mg/kg/dose in rats [2] [mg] | Mutagenicity, Ames bacterial reverse mutation (two assays) [3] | Potential for metabolism-dependent inhibition (all ten CYPs) | Cmax (in vivo) [ng/mL] | Direct inhibition of CYP2C8 (CYP2C8) | Metabolic stability [4]
COCCCCCCCCCN1C[C@H](O)[C@@H](O)[C@H](O)[C@H]1CO [UV-4B, N-(9’-methoxynonyl)-1-deoxynojirimycin hydrochloride] | 5 | 10 | 20 | not found to be mutagenic or clastogenic | 580 | not found to be mutagenic or clastogenic |  |  |  | 
COCCCCCCCCCN1C[C@H](O)[C@@H](O)[C@H](O)[C@H]1CO [UV-4, N-(9’-methoxynonyl)-1-deoxynojirimycin] |  |  |  |  |  |  | no significant potential | 4000 to 8000 | No clinically relevant direct inhibition | metabolically stable
